# Assay results taken from US20240208992A1, “MACROCYCLES AS CFTR MODULATORS” (Idorsia Pharmaceuticals Ltd, priority 2021, published 2024).
# Biological target: human F508del-CFTR (Homo sapiens, UniProt P13569, DEL508-508)
# Assay: F508del-CFTR cell surface expression (corrector activity), DiscoveRx ß-galactosidase complementation chemiluminescence assay in recombinant U2OS cell line;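 also: U2OS cells co-expressing ProLink-tagged F508del-CFTR and a membrane-anchored enzyme acceptor, where more surface CFTR restores β-galactosidase activity measured by chemiluminescence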
# Conditions: U2OS cell line, 16h compound incubation; for EC50: EC50, F508del-CFTR cell surface expression, geomean values; for Emax: U2OS, in relation to the Emax of the corrector lumacaftor (=100%), arithmetic mean values
# Sequence of human F508del-CFTR (P13569 with tags, fused parts or gaps DEL508-508): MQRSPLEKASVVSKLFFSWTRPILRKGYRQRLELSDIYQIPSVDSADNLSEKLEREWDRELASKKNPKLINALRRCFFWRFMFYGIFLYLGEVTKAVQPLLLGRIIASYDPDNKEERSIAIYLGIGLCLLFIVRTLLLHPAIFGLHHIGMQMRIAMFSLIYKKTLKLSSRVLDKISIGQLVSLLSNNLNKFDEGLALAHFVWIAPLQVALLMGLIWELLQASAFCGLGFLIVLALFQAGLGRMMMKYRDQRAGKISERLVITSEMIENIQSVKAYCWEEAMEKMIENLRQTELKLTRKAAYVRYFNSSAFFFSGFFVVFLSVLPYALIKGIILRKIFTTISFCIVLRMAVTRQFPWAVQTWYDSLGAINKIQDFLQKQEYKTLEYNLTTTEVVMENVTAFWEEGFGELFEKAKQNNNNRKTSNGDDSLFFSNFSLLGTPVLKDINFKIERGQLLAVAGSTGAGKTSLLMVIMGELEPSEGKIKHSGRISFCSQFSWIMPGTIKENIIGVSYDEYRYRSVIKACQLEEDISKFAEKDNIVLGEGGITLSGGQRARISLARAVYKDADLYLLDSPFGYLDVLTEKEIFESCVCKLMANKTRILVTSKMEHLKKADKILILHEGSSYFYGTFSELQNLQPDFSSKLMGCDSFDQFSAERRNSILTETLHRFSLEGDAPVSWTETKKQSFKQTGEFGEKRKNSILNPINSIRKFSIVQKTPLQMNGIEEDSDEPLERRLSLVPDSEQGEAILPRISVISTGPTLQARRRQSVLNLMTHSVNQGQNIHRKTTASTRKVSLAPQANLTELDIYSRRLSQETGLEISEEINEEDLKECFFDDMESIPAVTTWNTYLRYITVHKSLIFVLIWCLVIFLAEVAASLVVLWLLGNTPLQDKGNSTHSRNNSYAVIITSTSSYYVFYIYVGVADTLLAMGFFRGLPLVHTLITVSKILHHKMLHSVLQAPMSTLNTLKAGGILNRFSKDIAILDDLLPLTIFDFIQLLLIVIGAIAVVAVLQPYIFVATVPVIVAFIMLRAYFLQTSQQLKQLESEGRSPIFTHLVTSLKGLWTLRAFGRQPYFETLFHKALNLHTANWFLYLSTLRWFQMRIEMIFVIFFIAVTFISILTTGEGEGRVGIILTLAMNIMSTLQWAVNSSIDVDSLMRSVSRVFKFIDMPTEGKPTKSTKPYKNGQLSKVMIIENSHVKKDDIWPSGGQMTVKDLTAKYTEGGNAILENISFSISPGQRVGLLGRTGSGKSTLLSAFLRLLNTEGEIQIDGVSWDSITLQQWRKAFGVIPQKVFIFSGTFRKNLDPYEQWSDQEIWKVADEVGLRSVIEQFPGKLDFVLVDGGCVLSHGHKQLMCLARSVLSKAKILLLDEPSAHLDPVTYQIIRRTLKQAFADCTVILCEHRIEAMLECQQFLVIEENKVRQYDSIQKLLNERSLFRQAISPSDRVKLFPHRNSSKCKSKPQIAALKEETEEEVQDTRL
Compound,EC50 [nM],Emax [%]
"COc1cccc(CCNC(=O)[C@@H]2CC(=O)N(C)[C@@H](CC3CCCC3)C(=O)N(C[C@H]3CCCCO3)CC(=O)N[C@H](Cc3ccccc3)COc3cccc(OC)c3C(=O)N2)c1 [Example 313, (3R,9S,13S)-3-benzyl-9-(cyclopentylmethyl)-16-methoxy-N-(3-methoxyphenethyl)-10-methyl-5,8,11,15-tetraoxo-7-(((R)-tetrahydro-2H-pyran-2-yl)methyl)-2,3,4,5,6,7,8,9,10,11,12,13,14,15-tetradecahydrobenzo[p][1]oxa[4,7,10,14]tetraazacycloheptadecine-13-carboxamide]",313,119
"COc1cccc(CCNC(=O)[C@@H]2CC(=O)N(C)[C@@H](CC3CCCCC3)C(=O)N(C[C@@H]3CCCCO3)CC(=O)N[C@H](Cc3ccccc3)COc3cccc(OC)c3C(=O)N2)c1 [Example 314, (3R,9S,13S)-3-benzyl-9-(cyclohexylmethyl)-16-methoxy-N-(3-methoxyphenethyl)-10-methyl-5,8,11,15-tetraoxo-7-(((S)-tetrahydro-2H-pyran-2-yl)methyl)-2,3,4,5,6,7,8,9,10,11,12,13,14,15-tetradecahydrobenzo[p][1]oxa[4,7,10,14]tetraazacycloheptadecine-13-carboxamide]",469,111
"COc1cccc(CCNC(=O)[C@@H]2CC(=O)N(C)[C@@H](CC(C)C)C(=O)N(CCC3CCCCC3)CC(=O)N[C@H](Cc3ccccc3)COc3cnc4ccccc4c3C(=O)N2)c1 [Example 315, (3S,7S,13R)-13-benzyl-9-(2-cyclohexylethyl)-7-isobutyl-N-(3-methoxyphenethyl)-6-methyl-1,5,8,11-tetraoxo-1,2,3,4,5,6,7,8,9,10,11,12,13,14-tetradecahydro-[1]oxa[4,7,10,14]tetraazacycloheptadecino[17,16-c]quinoline-3-carboxamide]",115,349
"[2H]C([2H])([2H])Oc1cccc(CCNC(=O)[C@@H]2CC(=O)N(C)[C@@H](CC(C)C)C(=O)N(CCC3CCCCC3)CC(=O)N[C@H](Cc3ccccc3)COc3cnc4ccccc4c3C(=O)N2)c1 [Example 316, (3S,7S,13R)-13-benzyl-9-(2-cyclohexylethyl)-7-isobutyl-N-(3-(methoxy-d3)phenethyl)-6-methyl-1,5,8,11-tetraoxo-1,2,3,4,5,6,7,8,9,10,11,12,13,14-tetradecahydro-[1]oxa[4,7,10,14]tetraazacycloheptadecino[17,16-c]quinoline-3-carboxamide]",55,343
"COc1cccc(CCNC(=O)[C@@H]2CC(=O)N(C)[C@@H](CC(C)C)C(=O)N(C)CC(=O)N[C@H](Cc3ccccc3)COc3cccc(OC(F)(F)F)c3C(=O)N2)c1 [Example 317, (3R,9S,13S)-3-benzyl-9-isobutyl-N-(3-methoxyphenethyl)-7,10-dimethyl-5,8,11,15-tetraoxo-16-(trifluoromethoxy)-2,3,4,5,6,7,8,9,10,11,12,13,14,15-tetradecahydrobenzo[p][1]oxa[4,7,10,14]tetraazacycloheptadecine-13-carboxamide]",661,89
"CC(C)C[C@H]1C(=O)N(C)CC(=O)N[C@H](Cc2ccccc2)COc2cnc3ccccc3c2C(=O)N[C@H](C(=O)NCCc2ccc3c(c2)OCO3)CC(=O)N1C [Example 318, (3S,7S,13R)-N-(2-(benzo[d][1,3]dioxol-5-yl)ethyl)-13-benzyl-7-isobutyl-6,9-dimethyl-1,5,8,11-tetraoxo-1,2,3,4,5,6,7,8,9,10,11,12,13,14-tetradecahydro-[1]oxa[4,7,10,14]tetraazacycloheptadecino[17,16-c]quinoline-3-carboxamide]",679,295
"COc1cccc(CCNC(=O)[C@@H]2CC(=O)N(C)[C@@H](CC(C)C)C(=O)N(C)CC(=O)N[C@H](Cc3ccccc3)COc3cnc4ccccc4c3C(=O)N2)c1 [Example 319, (3S,7S,13R)-13-benzyl-7-isobutyl-N-(3-methoxyphenethyl)-6,9-dimethyl-1,5,8,11-tetraoxo-1,2,3,4,5,6,7,8,9,10,11,12,13,14-tetradecahydro-[1]oxa[4,7,10,14]tetraazacycloheptadecino[17,16-c]quinoline-3-carboxamide]",574,296
"[2H]C([2H])([2H])Oc1cccc(CCNC(=O)[C@@H]2CC(=O)N(C)[C@@H](CC(C)C)C(=O)N(C)CC(=O)N[C@H](Cc3ccccc3)COc3cnc4ccccc4c3C(=O)N2)c1 [Example 320, (3S,7S,13R)-13-benzyl-7-isobutyl-N-(3-(methoxy-d3)phenethyl)-6,9-dimethyl-1,5,8,11-tetraoxo-1,2,3,4,5,6,7,8,9,10,11,12,13,14-tetradecahydro-[1]oxa[4,7,10,14]tetraazacycloheptadecino[17,16-c]quinoline-3-carboxamide]",363,297
"CC(C)C[C@H]1C(=O)N(C)CC(=O)N[C@H](Cc2ccccc2)COc2ccc3c(c2C(=O)N[C@H](C(=O)NCCc2ccc4c(c2)OCO4)CC(=O)N1C)OCO3 [Example 321, (8R,14S,18S)-N-(2-(benzo[d][1,3]dioxol-5-yl)ethyl)-8-benzyl-14-isobutyl-12,15-dimethyl-10,13,16,20-tetraoxo-7,8,9,10,11,12,13,14,15,16,17,18,19,20-tetradecahydro-[1,3]dioxolo[4′,5′:5,6]benzo[1,2-p][1]oxa[4,7,10,14]tetraazacycloheptadecine-18-carboxamide]",816,266
"[2H]C1([2H])Oc2ccc3c(c2O1)C(=O)N[C@H](C(=O)NCCc1ccc2c(c1)OCO2)CC(=O)N(C)[C@@H](CC(C)C)C(=O)N(C)CC(=O)N[C@H](Cc1ccccc1)CO3 [Example 322, (8R,14S,18S)-N-(2-(benzo[d][1,3]dioxol-5-yl)ethyl)-8-benzyl-14-isobutyl-12,15-dimethyl-10,13,16,20-tetraoxo-7,8,9,10,11,12,13,14,15,16,17,18,19,20-tetradecahydro-[1,3]dioxolo[4′,5′:5,6]benzo[1,2-p][1]oxa[4,7,10,14]tetraazacycloheptadecine-2,2-d2-18-carboxamide]",504,197
"COc1cccc(CCNC(=O)[C@@H]2CC(=O)N(C)[C@@H](CC(C)C)C(=O)N(C)CC(=O)N[C@H](Cc3ccccc3)COc3ccc4c(c3C(=O)N2)OCO4)c1 [Example 323, (8R,14S,18S)-8-benzyl-14-isobutyl-N-(3-methoxyphenethyl)-12,15-dimethyl-10,13,16,20-tetraoxo-7,8,9,10,11,12,13,14,15,16,17,18,19,20-tetradecahydro-[1,3]dioxolo[4′,5′:5,6]benzo[1,2-p][1]oxa[4,7,10,14]tetraazacycloheptadecine-18-carboxamide]",742,258
"[2H]C1([2H])Oc2ccc3c(c2O1)C(=O)N[C@H](C(=O)NCCc1cccc(OC)c1)CC(=O)N(C)[C@@H](CC(C)C)C(=O)N(C)CC(=O)N[C@H](Cc1ccccc1)CO3 [Example 324, (8R,14S,18S)-8-benzyl-14-isobutyl-N-(3-methoxyphenethyl)-12,15-dimethyl-10,13,16,20-tetraoxo-7,8,9,10,11,12,13,14,15,16,17,18,19,20-tetradecahydro-[1,3]dioxolo[4′,5′:5,6]benzo[1,2-p][1]oxa[4,7,10,14]tetraazacycloheptadecine-2,2-d2-18-carboxamide]",666,247
"COc1cc(CCNC(=O)[C@@H]2CC(=O)N(C)[C@@H](CC(C)C)C(=O)N3CCOC[C@@H]3C(=O)N[C@H](Cc3ccccc3)COc3ccc4ccccc4c3C(=O)N2)cc(OC)c1 [Example 325, (4aR,7R,18S,22S)-7-benzyl-N-(3,5-dimethoxyphenethyl)-22-isobutyl-21-methyl-5,16,20,23-tetraoxo-1,2,4,4a,5,6,7,8,16,17,18,19,20,21,22,23-hexadecahydronaphtho[1,2-p][1,4]oxazino[3,4-f][1]oxa[4,7,10,14]tetraazacycloheptadecine-18-carboxamide]",187,237
"CC(C)C[C@H]1C(=O)N2CCOC[C@@H]2C(=O)N[C@H](Cc2ccccc2)COc2ccc3ccccc3c2C(=O)N[C@H](C(=O)NCCc2ccc3c(c2)OCO3)CC(=O)N1C [Example 326, (4aR,7R,18S,22S)-N-(2-(benzo[d][1,3]dioxol-5-yl)ethyl)-7-benzyl-22-isobutyl-21-methyl-5,16,20,23-tetraoxo-1,2,4,4a,5,6,7,8,16,17,18,19,20,21,22,23-hexadecahydronaphtho[1,2-p][1,4]oxazino[3,4-f][1]oxa[4,7,10,14]tetraazacycloheptadecine-18-carboxamide]",276,273
"CC(C)C[C@H]1C(=O)N2CCOC[C@@H]2C(=O)N[C@H](Cc2ccccc2)COc2ccc3ccccc3c2C(=O)N[C@H](C(=O)NCCc2nc3ccccc3o2)CC(=O)N1C [Example 327, (4aR,7R,18S,22S)-N-(2-(benzo[d]oxazol-2-yl)ethyl)-7-benzyl-22-isobutyl-21-methyl-5,16,20,23-tetraoxo-1,2,4,4a,5,6,7,8,16,17,18,19,20,21,22,23-hexadecahydronaphtho[1,2-p][1,4]oxazino[3,4-f][1]oxa[4,7,10,14]tetraazacycloheptadecine-18-carboxamide]",461,225
"COc1cc(CCNC(=O)[C@@H]2CC(=O)N(C)[C@@H](CC(C)C)C(=O)N3CCCC[C@@H]3C(=O)N[C@H](Cc3ccccc3)COc3ccc4ncn(C)c4c3C(=O)N2)cc(OC)c1 [Example 328, (8S,12S,18aR,21R)-21-benzyl-N-(3,5-dimethoxyphenethyl)-12-isobutyl-5,11-dimethyl-6,10,13,19-tetraoxo-6,7,8,9,10,11,12,13,16,17,18,18a,19,20,21,22-hexadecahydro-5H,15H-imidazo[4′,5′:5,6]benzo[1,2-p]pyrido[2,1-f][1]oxa[4,7,10,14]tetraazacycloheptadecine-8-carboxamide]",987,228
